Experimental data as given in publication PMC11413964, “Discovery of 1,3-disubstituted prop-2-en-1-one derivatives as inhibitors of neutrophilic inflammation via modulation of MAPK and Akt pathways” (Journal of Enzyme Inhibition and Medicinal Chemistry, 2024).

Tests used:
[1] = test system: fMLF/cytochalasin B (CB)-activated human neutrophils; assay: Superoxide anion generation (ferricytochrome c reduction) in fMLF/CB-activated human neutrophils; format: cell-based; conditions: Neutrophil, fMLF/CB stimulation, mean ± SEM (n = 3–5); for inhibition at 10 µM: 10 μM compound
Procedure: (§1) The study involving neutrophils was approved by the Institutional Review Board of Chang Gung Memorial Hospital under IRB number: 201902217A3 and was conducted in accordance with the principles of the Declaration of Helsinki. Healthy volunteers aged 20–35 years provided signed informed consents for blood collection. Isolation of neutrophils was done using dextran sedimentation, Ficoll-Hypaque density gradient centrifugation, and hypotonic haemolysis. For the anti-inflammatory studies, neutrophils were suspended in Hank’s balanced salt solution (HBSS) containing 1 mM Ca^2+ at a pH of 7.4[72].
The reduction of ferricytochrome c was utilised to measure the production of SO anions in activated human neutrophils. […] The neutrophils were then stimulated with fMLF (0.1 μM) and CB (1 μg/mL) for 13 min. […] LY294002 was used as a positive control.

[2] = test system: fMLF/cytochalasin B (CB)-activated human neutrophils; assay: Elastase release in fMLF/CB-activated human neutrophils; format: cell-based; conditions: Homo sapiens, Neutrophil, fMLF/CB stimulation, mean ± SEM (n = 3–5); for inhibition at 10 µM: 10 μM compound
Procedure: as §1
Neutrophils were subsequently stimulated with fMLF (0.1 μM) and CB (0.5 μg/mL) for 13 min. […] LY294002 was used as a positive control.

SMILES | inhibition at 10 µM [1] [%] | inhibition at 10 µM [2] [%] | melting point [°C] | IC50 [1] [µM] | IC50 [2] [µM]
Cc1ccc(/C=C/C(=O)C(C)(C)C)cc1F [Compound 18, (E)-1-(3-Fluoro-4-methylphenyl)-4,4-dimethylpent-1-en-3-one] | 31.3 ± 4.71 | 7.77 ± 0.8 | 70 to 71 | – | –
COc1cccc(C(=O)/C=C/c2ccccc2Cl)c1 [Compound 18a, (E)-3-(2-Chlorophenyl)-1-(3-methoxyphenyl)prop-2-en-1-one] | 47.6 ± 5.41 | 31.3 ± 7.29 | 117 | – | –
COc1ccc(/C=C/C(=O)C(C)(C)C)cc1F [Compound 19, (E)-1-(3-Fluoro-4-methoxyphenyl)-4,4-dimethylpent-1-en-3-one] | 2.87 ± 2.8 | 3.9 ± 1.68 | 84.6 | – | –
COc1ccc(/C=C/C(=O)c2ccccc2C)cc1F [Compound 20, (E)-3-(3-Fluoro-4-methoxyphenyl)-1-(o-tolyl)prop-2-en-1-one] | 49.8 ± 5.82 | 10.6 ± 2.28 | 69 to 70 | – | –
COc1ccc(C(=O)/C=C/c2ccc(OC)c(F)c2)c(OC)c1 [Compound 21, (E)-1-(2,4-Dimethoxyphenyl)-3-(3-fluoro-4-methoxyphenyl)prop-2-en-1-one] | 17.1 ± 3.58 | 31.6 ± 5.88 | 85 to 86 | – | –
COc1ccccc1C(=O)/C=C/c1cccc(Cl)c1 [Compound 21a, (E)-3-(3-Chlorophenyl)-1-(2-methoxyphenyl)prop-2-en-1-one] | 89.9 ± 2.38 | 80.4 ± 4.44 | 96 to 98 | 3.79 ± 0.69 | 5.63 ± 0.51
COc1ccc(/C=C/C(=O)C(C)(C)C)c(F)c1F [Compound 22, (E)-1-(2,3-Difluoro-4-methoxyphenyl)-4,4-dimethylpent-1-en-3-one] | 31.4 ± 3.36 | 4.84 ± 2.66 | 128 to 129 | – | –
COc1ccc(C(=O)/C=C/c2cccc(Cl)c2)cc1 [Compound 22a, (E)-3-(3-Chlorophenyl)-1-(4-methoxyphenyl)prop-2-en-1-one] | 65.2 ± 3.73 | 36.1 ± 6.48 | 97 to 99 | 6.6 ± 0.6 | –
COc1cc(F)c(/C=C/C(=O)C(C)(C)C)cc1F [Compound 23, (E)-1-(2,5-Difluoro-4-methoxyphenyl)-4,4-dimethylpent-1-en-3-one] | 8.1 ± 1.88 | 2.5 ± 1.53 | 131 to 132 | – | –
O=C(/C=C/c1cc(F)cc(F)c1)c1ccc(Cl)cc1 [Compound 23a, (E)-1-(4-Chlorophenyl)-3-(3,5-difluorophenyl)prop-2-en-1-one] | 96.04 ± 0.09 | 83 ± 2.64 | 123.6 to 124 | 2.03 ± 0.27 | 2.32 ± 0.26
COc1cccc(C(=O)/C=C/c2cc(F)cc(F)c2)c1 [Compound 24a, (E)-3-(3,5-Difluorophenyl)-1-(3-methoxyphenyl)prop-2-en-1-one] | 3.12 ± 5.02 | 37.1 ± 7.65 | 95.2 to 97.2 | – | –
COc1ccc(C(=O)/C=C/c2cc(F)cc(F)c2)cc1 [Compound 25a, (E)-3-(3,5-Difluorophenyl)-1-(4-methoxyphenyl)prop-2-en-1-one] | 78.2 ± 9.5 | 20.9 ± 3.64 | 154.3 to 155 | 4.7 ± 0.6 | –
O=C(/C=C/c1ccc2ccccc2n1)c1ccccc1 [Compound 28, (E)-1-Phenyl-3-(quinolin-2-yl)prop-2-en-1-one] | 106 ± 1.73 | 99.1 ± 7.32 | 118 to 120 | 1.73 ± 0.07 | 2.17 ± 0.3
CCOc1ccccc1C(=O)/C=C/c1ccc(-c2ccccc2)cc1 [Compound 30, (E)-3-([1,1′-Biphenyl]-4-yl)-1-(2-ethoxyphenyl)prop-2-en-1-one] | 8.69 ± 2.43 | 15.8 ± 2.57 | 98 to 99 | – | –
